The values that follow are results of earlier work, collected in patent US9040021B2, “Heterocyclic compounds as imaging probes of tau pathology” (GE Healthcare Limited, priority 2010, dated 2015).

This series has as its target tau aggregates (Homo sapiens, UniProt P10636). The conditions noted are these: in vitro; tau aggregates vs Aβ1-42 amyloid; fold selectivity.

tau aggregates, sequence (P10636 whole entry): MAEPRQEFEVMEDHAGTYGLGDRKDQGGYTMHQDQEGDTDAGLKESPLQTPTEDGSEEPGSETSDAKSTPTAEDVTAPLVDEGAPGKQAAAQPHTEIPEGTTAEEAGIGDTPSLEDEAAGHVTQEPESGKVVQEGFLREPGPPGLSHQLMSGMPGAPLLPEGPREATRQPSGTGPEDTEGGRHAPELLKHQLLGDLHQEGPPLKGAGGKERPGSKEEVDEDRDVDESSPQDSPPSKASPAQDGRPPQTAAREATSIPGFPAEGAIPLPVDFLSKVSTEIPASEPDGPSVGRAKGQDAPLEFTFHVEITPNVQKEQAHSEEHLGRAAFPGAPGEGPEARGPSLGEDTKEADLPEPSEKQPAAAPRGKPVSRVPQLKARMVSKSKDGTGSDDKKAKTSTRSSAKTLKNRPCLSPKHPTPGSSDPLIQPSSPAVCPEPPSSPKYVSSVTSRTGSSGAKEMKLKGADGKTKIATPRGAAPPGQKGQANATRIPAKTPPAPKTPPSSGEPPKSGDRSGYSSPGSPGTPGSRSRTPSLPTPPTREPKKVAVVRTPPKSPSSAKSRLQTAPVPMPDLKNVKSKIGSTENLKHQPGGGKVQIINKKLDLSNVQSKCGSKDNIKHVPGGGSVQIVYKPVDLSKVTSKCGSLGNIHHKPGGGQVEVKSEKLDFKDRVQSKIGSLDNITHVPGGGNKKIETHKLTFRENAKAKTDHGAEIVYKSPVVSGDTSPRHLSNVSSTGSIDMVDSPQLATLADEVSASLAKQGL

In the case of `CNc1ccc(-c2ccc3ccccc3n2)cc1` [BF-158, 2-(4-(methylamino)phenyl)quinoline], the “selectivity for tau aggregates over Aβ1-42 amyloid” value was “threefold”.
In the case of `Nc1ccc(-c2ccc3ccccc3n2)cc1` [BF-170, 2-(4-(amino)phenyl)quinoline], the “selectivity for tau aggregates over Aβ1-42 amyloid” value is listed as “threefold”.
